Results published in PMC2679150 (Science (New York, N.Y.), 2009).

Biological target: T1, BlaC β-lactamase (Mycobacterium tuberculosis, UniProt P9WKD3)
T1 sequence (P9WKD3 35-307): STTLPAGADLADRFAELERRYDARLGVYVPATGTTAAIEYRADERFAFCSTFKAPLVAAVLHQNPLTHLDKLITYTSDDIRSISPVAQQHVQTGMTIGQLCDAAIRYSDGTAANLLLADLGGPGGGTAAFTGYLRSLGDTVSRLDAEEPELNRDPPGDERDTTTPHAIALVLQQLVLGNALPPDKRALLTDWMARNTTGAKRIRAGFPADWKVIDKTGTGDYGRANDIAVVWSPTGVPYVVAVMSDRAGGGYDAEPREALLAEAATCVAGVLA
Assay: biochemical

SMILES: C[C@@H](O)[C@H]1C(=O)N2C(C(=O)O)=C(S[C@@H]3CN[C@H](C(=O)N(C)C)C3)[C@H](C)[C@H]12 [meropenem]
- Ki: 1100 ± 800 nM
